{"source": "paper PMC9599717", "about": "“The Multicellular Effects of VDAC1 N-Terminal-Derived Peptide” (Biomolecules, 2022)", "key": {"U-87MG cells [1]": {"tested_on": "U-87MG cells", "assay": "Cell morphology / cell size by light microscopy", "assay_type": "cell-based, human", "details": "16 h treatment", "method": "Cells were seeded in a 6-well plates, treated with D-Δ(1-18)N-Ter-Antp peptide for 24 h, and monitored with the Holomonitor live cell imaging system (Holographic Imaging, Lund, Sweden) for 24 h at 37 °C and 5% CO2 or with a microscope (LX2-KSP; Olympus, Shinjuku, Tokyo, Japan), with images captured by a CCD camera.\nFigure 2 D-Δ(1-18)N-Ter-Antp-induced changes in cell morphology and cell membrane permeability. (A,B) U-87MG cells were treated with the indicated concentrations of D-Δ(1-18)N-Ter-Antp peptide for 16 h, and cell morphology was monitored by light microscope (A). Quantification of cell size (B). (C,D) U-87MG cells were untreated or treated with 10 μM of D-Δ(1-18)N-Ter-Antp peptide or N-TerΔ(21-26)-Antp for 24 h, and cell morphology was monitored by light microscope (C). Quantification of cell size (D). (E,F) Cells were stained with anti-vinculin antibodies, followed by secondary anti-mouse-cy3 antibodies. Scale bars are 20 μm. White arrows point to focal adhesion (E). Quantification of vinculin staining intensity (F). (G) D-Δ(1-18)N-Ter-Antp-induced cell membrane permeability changes in HeLa cells. Cells were treated with D-Δ(1-18)N-Ter-Antp peptide (10 µM) for 6 h and subjected to FM4-64 dye staining. Yellow arrows point to apoptotic cells with apoptotic bodies. (H) Quantification of fluorescence intensity of FM4-64. * p < 0.05, *** p < 0.001, **** p < 0.0001 (n = 3). […]"}, "U-87MG cells [2]": {"tested_on": "U-87MG cells", "assay": "Acridine orange (AO) staining of acidic vesicles", "assay_type": "cell-based, human", "details": "6 h, serum-free DMEM", "method": "Figure 7 D-Δ(1-18)-N-Ter-Antp peptide induced vesicle/particle formation. U-87MG cells were treated for 6 h with the indicated concentrations of D-Δ(1-18)N-Ter-Antp peptide in serum-free DMEM. (A) Cells were visualized for vesicle formation under a light microscope. Red circles indicate vesicles/particles. The images were captured at 40× and two folds enlargement is shown. (B,C) Cells were stained with acridine orange (AO). Arrows indicate red/orange stained endosomal/lysosomal vesicles (B). Scale bars were 20 μm. Vesicles/particles are indicated by violet arrows. Quantification of AO staining intensity (C). (D) Cells were stained with anti-vinculin antibodies, followed by secondary anti-mouse-cy3 antibodies. […] (F) U-87MG cells were treated with various concentrations of D-Δ(1-18)N-Ter-Antp peptide for the indicated time and subjected to Oil Red O staining and quantification as described in the Supplementary Data. […]\ncolor was read in a spectrophotometer at 680 nm. […]\nU-87MG cells were treated with D-Δ(1-18)N-Ter-Antp peptide in serum-free DMEM media for 6 h at 37℃, incubated with acridine orange (1 μg/ml) for 15 min, visualized by fluorescence microscopy (Olympus LX2 - KSP, Tokyo, Japan), and images were captured with a CCD camera. About 200 cells were counted for each […]"}}}
{"substance": "19-FTKGYGFGL-26- RQIKIWFQNRRMKWKK [D-Δ(1-18)N-Ter-Antp]", "values": [{"measurement": "Enlarged cell area relative to untreated cells", "setting": "U-87MG cells [1]", "value": "up to 3 fold"}, {"measurement": "Increase in orange color (AO accumulation in acidic vesicles)", "setting": "U-87MG cells [2]", "value": "more than 3 fold"}]}
